According to ChEMBL document CHEMBL4118148, “Design, synthesis and cardiovascular evaluation of some aminoisopropanoloxy derivatives of xanthone” (Bioorg Med Chem, 2018):
Each block holds one molecule with its values, some of them ahead of it. Active and inactive are the calls of the source. The rule behind the calls is not given here.

Key:
Rattus norvegicus [1] = test: In vivo inhibition of beta adrenoceptor in Wistar rat assessed as reduction in isoprenaline-induced tachycardia at 1 mg/kg, iv administered as single dose 10 mins prior to isoprenaline injection; type: functional, organism-based
Rattus norvegicus [2] = test: Hypotensive activity in normotensive Wistar rat assessed as reduction in systolic blood pressure at 1 mg/kg, iv measured after 30 to 60 mins relative to control; type: functional; set-up: scale not given: the % may be the effect or the level left
Rattus norvegicus [3] = test: Hypotensive activity in normotensive Wistar rat assessed as reduction in diastolic blood pressure at 1 mg/kg, iv measured after 30 to 60 mins relative to control; type: functional; set-up: scale not given: the % may be the effect or the level left
Rattus norvegicus [4] = test: Cardiotoxicity in Wistar rat assessed as effect on heart rate at 1 mg/kg, iv measured after 1 min (reference value: 320.6 +/- 8.1 bpm); type: toxicity, organism-based; settings: in vivo
Rattus norvegicus [5] = test: Cardiotoxicity in Wistar rat assessed as effect on PQ interval time at 1 mg/kg, iv measured after 1 min (reference value: 56.8 +/- 1.8 ms); type: toxicity, organism-based; settings: in vivo
Rattus norvegicus [6] = test: Cardiotoxicity in Wistar rat assessed as effect on QRS interval time at 1 mg/kg, iv measured after 1 min (reference value: 19.4 +/- 0.9 ms); type: toxicity, organism-based; settings: in vivo
Rattus norvegicus [7] = test: Cardiotoxicity in Wistar rat assessed as effect on QTC interval time at 1 mg/kg, iv measured after 1 min (reference value: 137.7 +/- 2 ms); type: toxicity, organism-based; settings: in vivo
Rattus norvegicus [8] = test: Cardiotoxicity in Wistar rat assessed as effect on heart rate at 1 mg/kg, iv measured after 5 mins (reference value: 320.6 +/- 8.1 bpm); type: toxicity, organism-based; settings: in vivo
Rattus norvegicus [9] = test: Cardiotoxicity in Wistar rat assessed as effect on QRS interval time at 1 mg/kg, iv measured after 5 mins (reference value: 19.4 +/- 0.9 ms); type: toxicity, organism-based; settings: in vivo
Rattus norvegicus [10] = test: Cardiotoxicity in Wistar rat assessed as effect on QT interval time at 1 mg/kg, iv measured after 5 mins (reference value: 59.2 +/- 0.5 ms); type: toxicity, organism-based; settings: in vivo
Rattus norvegicus [11] = test: Cardiotoxicity in Wistar rat assessed as effect on QTC interval time at 1 mg/kg, iv measured after 5 mins (reference value: 137.7 +/- 2 ms); type: toxicity, organism-based; settings: in vivo
Rattus norvegicus [12] = test: Cardiotoxicity in Wistar rat assessed as effect on heart rate at 1 mg/kg, iv measured after 15 mins (reference value: 320.6 +/- 8.1 bpm); type: toxicity, organism-based; settings: in vivo, 0.25 h
Rattus norvegicus [13] = test: Cardiotoxicity in Wistar rat assessed as effect on PQ interval time at 1 mg/kg, iv measured after 15 mins (reference value: 56.8 +/- 1.8 ms); type: toxicity, organism-based; settings: in vivo, 0.25 h
Rattus norvegicus [14] = test: Cardiotoxicity in Wistar rat assessed as effect on QRS interval time at 1 mg/kg, iv measured after 15 mins (reference value: 19.4 +/- 0.9 ms); type: toxicity, organism-based; settings: in vivo, 0.25 h
Rattus norvegicus [15] = test: Cardiotoxicity in Wistar rat assessed as effect on QTC interval time at 1 mg/kg, iv measured after 15 mins (reference value: 137.7 +/- 2 ms); type: toxicity, organism-based; settings: in vivo, 0.25 h
Rattus norvegicus [16] = test: Hypotensive activity in normotensive Wistar rat assessed as reduction in systolic blood pressure at 1 mg/kg, iv measured over 40th min relative to control; type: functional; set-up: scale not given: the % may be the effect or the level left
Rattus norvegicus [17] = test: Hypotensive activity in normotensive Wistar rat assessed as reduction in diastolic blood pressure at 1 mg/kg, iv measured over 40th min relative to control; type: functional; set-up: scale not given: the % may be the effect or the level left
[18] = (§1) Inhibition of voltage gated calcium channel in Wistar rat aorta assessed as relaxation of KCl-precontracted aortic rings by measuring reduction in calcium entry in presence of phentolamine
Rattus norvegicus [19] = species on record: Rattus norvegicus; test: as §1
Rattus norvegicus [20] = test: Hypotensive activity in normotensive Wistar rat assessed as systolic blood pressure at 2.5 mg/kg, iv measured after 5 mins (reference value: 148.5 +/- 2.6 mmHg); type: functional
Rattus norvegicus [21] = test: Hypotensive activity in normotensive Wistar rat assessed as diastolic blood pressure at 2.5 mg/kg, iv measured after 5 mins (reference value: 116.2 +/- 1.2 mmHg); type: functional
Rattus norvegicus [22] = test: Hypotensive activity in normotensive Wistar rat assessed as systolic blood pressure at 2.5 mg/kg, iv measured after 10 mins (reference value: 148.5 +/- 2.6 mmHg); type: functional
Rattus norvegicus [23] = test: Hypotensive activity in normotensive Wistar rat assessed as diastolic blood pressure at 2.5 mg/kg, iv measured after 10 mins (reference value: 116.2 +/- 1.2 mmHg); type: functional
Rattus norvegicus [24] = test: Hypotensive activity in normotensive Wistar rat assessed as systolic blood pressure at 2.5 mg/kg, iv measured after 20 mins (reference value: 148.5 +/- 2.6 mmHg); type: functional
Rattus norvegicus [25] = test: Hypotensive activity in normotensive Wistar rat assessed as diastolic blood pressure at 2.5 mg/kg, iv measured after 20 mins (reference value: 116.2 +/- 1.2 mmHg); type: functional
Rattus norvegicus [26] = test: Hypotensive activity in normotensive Wistar rat assessed as systolic blood pressure at 2.5 mg/kg, iv measured after 30 mins (reference value: 148.5 +/- 2.6 mmHg); type: functional
Rattus norvegicus [27] = test: Hypotensive activity in normotensive Wistar rat assessed as diastolic blood pressure at 2.5 mg/kg, iv measured after 30 mins (reference value: 116.2 +/- 1.2 mmHg); type: functional
Rattus norvegicus [28] = test: Hypotensive activity in normotensive Wistar rat assessed as systolic blood pressure at 2.5 mg/kg, iv measured after 60 mins (reference value: 148.5 +/- 2.6 mmHg); type: functional
Rattus norvegicus [29] = test: Hypotensive activity in normotensive Wistar rat assessed as reduction in systolic blood pressure at 2.5 mg/kg, iv measured after 5 to 10 mins relative to control; type: functional; set-up: scale not given: the % may be the effect or the level left
Rattus norvegicus [30] = test: Hypotensive activity in normotensive Wistar rat assessed as reduction in diastolic blood pressure at 2.5 mg/kg, iv measured after 5 to 10 mins relative to control; type: functional; set-up: scale not given: the % may be the effect or the level left
Blood = test: Anti-aggregative activity in Wistar rat whole blood assessed as inhibition of collagen-induced aggregation up to 100 uM preincubated for 3 mins followed by collagen induction measured for 6 mins; type: functional, tissue-based
Rattus norvegicus [31] = test: Hypotensive activity in normotensive Wistar rat assessed as reduction in systolic blood pressure at 0.5 mg/kg, iv measured over 30 mins relative to control; type: functional; set-up: scale not given: the % may be the effect or the level left
Rattus norvegicus [32] = test: Hypotensive activity in normotensive Wistar rat assessed as systolic blood pressure at 0.5 mg/kg, iv measured after 5 mins (reference value: 147.7 +/- 5.9 mmHg); type: functional
Rattus norvegicus [33] = test: Hypotensive activity in normotensive Wistar rat assessed as systolic blood pressure at 0.5 mg/kg, iv measured after 10 mins (reference value: 147.7 +/- 5.9 mmHg); type: functional
Rattus norvegicus [34] = test: Hypotensive activity in normotensive Wistar rat assessed as systolic blood pressure at 0.5 mg/kg, iv measured after 20 mins (reference value: 147.7 +/- 5.9 mmHg); type: functional
Rattus norvegicus [35] = test: Hypotensive activity in normotensive Wistar rat assessed as systolic blood pressure at 0.5 mg/kg, iv measured after 20 mins (reference value: 116 +/- 4.6 mmHg); type: functional
Rattus norvegicus [36] = test: Hypotensive activity in normotensive Wistar rat assessed as systolic blood pressure at 0.5 mg/kg, iv measured after 30 mins (reference value: 147.7 +/- 5.9 mmHg); type: functional
Rattus norvegicus [37] = test: Hypotensive activity in normotensive Wistar rat assessed as systolic blood pressure at 0.5 mg/kg, iv measured after 60 mins (reference value: 116 +/- 4.6 mmHg); type: functional

Structure (SMILES): CC(C)(C)NCC(O)COc1cccc2c(=O)c3ccccc3oc12.Cl (racemic)
inhibition (Rattus norvegicus [1]): Active | Activity (Rattus norvegicus [2]): 10% | Activity (Rattus norvegicus [3]): 10 - 13% | Activity (Rattus norvegicus [4]): 307.2 bpm | Time (Rattus norvegicus [5]): 57.6 ms | Time (Rattus norvegicus [6]): 19.6 ms | Time (Rattus norvegicus [7]): 134.5 ms | Activity (Rattus norvegicus [8]): 295.6 bpm | Time (Rattus norvegicus [9]): 19 ms | Time (Rattus norvegicus [10]): 59.2 ms | Time (Rattus norvegicus [11]): 132.2 ms | Activity (Rattus norvegicus [12]): 290.6 bpm | Time (Rattus norvegicus [13]): 58 ms | Time (Rattus norvegicus [14]): 19.2 ms | Time (Rattus norvegicus [15]): 131 ms

Structure (SMILES): Cl.O=c1c2ccccc2oc2cc(OCC(O)CN3CCN(c4ccccn4)CC3)ccc12 (racemic)
Activity (Rattus norvegicus [16]): 8 - 10% | Activity (Rattus norvegicus [17]): 8 - 10%

IC50 [18]: 10.3 µM | inhibition (Rattus norvegicus [19]): Dose-dependent effect | inhibition (Rattus norvegicus [19]; concentration not given here): 95%
Structure (SMILES): COc1ccc(CCNCC(O)COc2cccc3c(=O)c4ccccc4oc23)cc1OC.Cl (racemic)
Activity (Rattus norvegicus [20]): 143.7 mmHg | Activity (Rattus norvegicus [21]): 107 mmHg | Activity (Rattus norvegicus [22]): 135 mmHg | Activity (Rattus norvegicus [23]): 101.5 mmHg | Activity (Rattus norvegicus [24]): 132 mmHg | Activity (Rattus norvegicus [25]): 99.7 mmHg | Activity (Rattus norvegicus [26]): 130.7 mmHg | Activity (Rattus norvegicus [27]): 97.7 mmHg | Activity (Rattus norvegicus [28]): 133 mmHg | Activity (Rattus norvegicus [29]): 9 - 12% | Activity (Rattus norvegicus [30]): 8 - 16% | inhibition (Blood): inactive

Structure (SMILES): Cl.O=c1c2ccccc2oc2c(OCC(O)CN3CCN(c4ccccn4)CC3)cccc12 (racemic)
Activity (Rattus norvegicus [31]): 7 - 11% | Activity (Rattus norvegicus [32]): 146.7 mmHg | Activity (Rattus norvegicus [33]): 144 mmHg | Activity (Rattus norvegicus [34]): 143 mmHg | Activity (Rattus norvegicus [35]): 114 mmHg | Activity (Rattus norvegicus [36]): 137.7 mmHg | Activity (Rattus norvegicus [37]): 105.7 mmHg
